These results are taken from patent publication US9776972B2, “Pyrazole derivatives as arginine methyltransferase inhibitors and uses thereof” (priority 2013, dated 2017).

The structures appear in SMILES notation. Counter-ions that a name gives are not always drawn. A value given as a limit tells only on which side of the number the result lay.

For assay [1], the target named is T1, human PRMT1 (Homo sapiens, UniProt Q99873).
T1 construct: GST-tagged PRMT1; made in house; host or cells: High Five insect cells (baculovirus)
T1 sequence (Q99873 with tags, fused parts or gaps): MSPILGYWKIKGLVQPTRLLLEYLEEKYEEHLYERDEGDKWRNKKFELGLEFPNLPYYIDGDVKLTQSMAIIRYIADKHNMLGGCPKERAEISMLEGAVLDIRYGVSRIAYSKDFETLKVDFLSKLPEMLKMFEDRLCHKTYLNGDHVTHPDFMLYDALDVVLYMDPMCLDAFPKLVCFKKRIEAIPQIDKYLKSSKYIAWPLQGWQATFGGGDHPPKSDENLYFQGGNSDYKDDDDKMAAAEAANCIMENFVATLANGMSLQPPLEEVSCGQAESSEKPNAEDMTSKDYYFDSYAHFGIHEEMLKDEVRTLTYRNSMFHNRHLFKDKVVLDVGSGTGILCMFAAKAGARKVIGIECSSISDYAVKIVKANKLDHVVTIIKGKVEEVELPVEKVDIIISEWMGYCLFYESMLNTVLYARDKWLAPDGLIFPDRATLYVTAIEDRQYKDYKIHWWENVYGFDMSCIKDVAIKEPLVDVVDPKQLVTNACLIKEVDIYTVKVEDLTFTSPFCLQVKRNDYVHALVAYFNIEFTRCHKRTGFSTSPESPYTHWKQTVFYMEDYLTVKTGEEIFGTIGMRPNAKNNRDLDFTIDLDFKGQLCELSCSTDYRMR
Nature of the assay: PRMT1 Biochemical Assay (3H-SAM Flashplate, peptide substrate). As to conditions: single experiment or average of multiple experiments. Summed up:
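GST-tagged PRMT1 from baculovirus-infected cells, preincubated with compounds 30 min at room temperature in 20 mM Bicine pH 7.6, 1 mM TCEP, 0.005% BSG, 0.002% Tween 20. Reaction started with ³H-SAM plus biotinylated peptide, stopped with 300 µM cold SAM.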

Assay [2] addresses T2, human PRMT6 (Homo sapiens, UniProt Q96LA8).
T2 construct: Flag-PRMT6-His; made in house; host or cells: HEK 293F cells (BacMam baculovirus)
Nature of the assay: PRMT6 Biochemical Assay (3H-SAM Flashplate, peptide substrate). To be noted: Biochemical IC50 PRMT6, single experiment or average of multiple experiments. In short, it runs like this:
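Methylation of a biotin-tagged H4 (36-50) peptide by ³H-SAM was quantified by streptavidin Flashplate capture and scintillation counts (dpm/cpm). Before SAM/peptide addition, Flag-PRMT6-His was preincubated with compound for 30 min at room temperature in Bicine buffer, pH 7.6.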

Usually IC50 stands for the midpoint of a concentration-inhibition curve. Read a high IC50 as weaker potency in that assay.

T2 sequence (Q96LA8 with tags, fused parts or gaps): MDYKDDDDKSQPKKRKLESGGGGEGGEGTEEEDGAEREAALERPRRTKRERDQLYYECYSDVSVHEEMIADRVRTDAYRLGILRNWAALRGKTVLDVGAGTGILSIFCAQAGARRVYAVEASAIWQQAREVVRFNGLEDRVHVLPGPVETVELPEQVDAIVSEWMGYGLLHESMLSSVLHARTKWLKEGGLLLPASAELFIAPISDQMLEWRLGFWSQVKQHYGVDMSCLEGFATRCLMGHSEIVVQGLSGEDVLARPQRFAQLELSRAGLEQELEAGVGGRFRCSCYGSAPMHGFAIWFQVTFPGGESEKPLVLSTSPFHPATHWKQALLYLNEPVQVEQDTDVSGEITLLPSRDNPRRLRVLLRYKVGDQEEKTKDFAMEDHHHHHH

As for `CNCCN(C)Cc1c(-c2ccc(OCCCOC)cc2)cnn1C` [Compound 276], the IC50 in assay [1] and in assay [2] was > 1000 nM throughout.

Take `CNCCN(C)Cc1n[nH]cc1-c1ccc(Oc2cccc(C(=O)NC)c2)cc1` [Compound 268]: the IC50 was 4.58 nM in assay [1] and 2 nM in assay [2].

Regarding `CN(CCN)Cc1c[nH]nc1-c1ccc(C#N)cc1` [Compound 68], the IC50 in assay [1] amounted to 6.04 nM; in assay [2], 6.7 nM.

Turning to `CNCCN(C)Cc1n[nH]cc1-c1ccc(Oc2cccc(OC)c2)cc1` [Compound 239], the IC50 in assay [1] was found to be 2.51 nM; in assay [2], 1.01 nM.

On to `CN(CCN)Cc1cnn(CCO)c1-c1ccc(F)cc1` [Compound 65], for which the IC50 in assay [1] turned out to be 1940 nM; in assay [2] it was 423 nM.

`CNCCN(C)Cc1n[nH]cc1-c1ccc(Oc2cccc(F)c2)cc1` [Compound 270]: the IC50 in assay [1] was determined as 2.79 nM; in assay [2], 1.24 nM.

Regarding `CNCCN(C)Cc1c[nH]nc1-c1ccc(O)cc1` [Compound 27], the IC50 was found to be 97.7 nM in assay [1] and 18.5 nM in assay [2].

`CNCCN(C)Cc1c[nH]nc1-c1ccc(OC)c(F)c1` [Compound 52]: the IC50 came to 12.6 nM in assay [1] and 8.92 nM in assay [2].

For `CNCCN(C)Cc1cn(CCOC)nc1-c1ccc(OC(C)C)cc1` [Compound 253, N1-((3-(4-isopropoxyphenyl)-1-(2-methoxyethyl)-1H-pyrazol-4-yl)methyl)-N1,N2-dimethylethane-1,2-diamine hydrochloride], the IC50 was 113 nM in assay [1] and 748 nM in assay [2].

For `CNCCN(C)Cc1cn(CC(=O)OC)nc1-c1ccc(OC(C)C)cc1` [Compound 248], the IC50 in assay [1] was 215 nM; in assay [2], 831 nM.

Turning to `CNCCN(C)Cc1c[nH]nc1-c1cc(Cl)c(OC(C)C)c(Cl)c1` [Compound 265, N^1-((3-(3,5-dichloro-4-isopropoxyphenyl)-1H-pyrazol-4-yl)methyl)-N^1,N^2-dimethylethane-1,2-diamine], the IC50 in assay [1] is 5.67 nM; in assay [2] it was 15.7 nM.

As for `CNCCN(C)Cc1cnn(C2CCCC2)c1-c1ccc(OC(C)C)cc1` [Compound 255], the concentration for half-maximal inhibition (IC50) amounted to 16.8 nM in assay [1] and 75.1 nM in assay [2].

Consider `CNCCN(C)Cc1c[nH]nc1-c1cc(F)ccc1F` [Compound 50], for which the IC50 in assay [1] turned out to be 149 nM; in assay [2], 42.8 nM.

In the case of `CNCCN(C)Cc1cn(C2CCC2)nc1-c1ccc(OC(C)C)cc1` [Compound 254, N1-((1-cyclobutyl-3-(4-isopropoxyphenyl)-1H-pyrazol-4-yl)methyl)-N1,N2-dimethylethane-1,2-diamine hydrochloride], the results for the IC50 in assay [1] and in assay [2] were 29.3 nM and 201 nM, respectively.

In the case of `CNCCN(C)Cc1cn(C)nc1-c1ccc(OC(C)C)cc1` [Compound 243, N^1-((3-(4-isopropoxyphenyl)-1-methyl-1H-pyrazol-4-yl)methyl)-N1,N2-dimethylethane-1,2-diamine], the results for the IC50 in assay [1] and in assay [2] were 17.7 nM and 286 nM, respectively.

On to `CNCCN(C)Cc1nn(C)cc1-c1ccc(OCCCOC)cc1` [Compound 266], for which the values for the IC50 in assay [1] and in assay [2] were 176 nM and 33 nM, respectively.

As for `CCCc1ccc(-c2n[nH]cc2CN(C)CCNC)cc1` [Compound 20], the IC50 in assay [1] was 4.12 nM; in assay [2], 7.79 nM.

Regarding `CNCCN(C)Cc1n[nH]cc1-c1ccc(Oc2cccc(C(C)C)c2)cc1` [Compound 277], the IC50 came to 20.2 nM in assay [1] and 1.66 nM in assay [2].

For the compound `CNCCN(C)Cc1n[nH]cc1-c1cc(Cl)c(OC(C)C)c(Cl)c1` [Compound 273], the IC50 in assay [1] amounted to 8.56 nM; in assay [2] it was 31.6 nM.

With `CNCCN(C)Cc1n[nH]cc1-c1ccc(Oc2ccccc2)c(C(=O)NC)c1` [Compound 240], the IC50 in assay [1] was 38.2 nM; in assay [2] it was 14.6 nM.

Consider `CNCCN(C)Cc1c[nH]nc1-c1cc(CC(C)C)cc(CC(C)C)c1` [Compound 281], for which the IC50 in assay [1] came out at 11.2 nM; in assay [2] it was 241 nM.

`CNCCN(C)Cc1c[nH]nc1-c1ccc(Oc2ccccc2)c(C(=O)N(C)C)c1` [Compound 233]: the IC50 in assay [1] came out at 29.3 nM; in assay [2], 18.2 nM.
